Assays:
[1] = molecular target: Macrophage colony-stimulating factor 1 receptor (Homo sapiens) (UniProt P07333); settings: Compound concentration 1000.0 nM
[2] = molecular target: Homeodomain-interacting protein kinase 1 (Homo sapiens) (UniProt Q86Z02); settings: Compound concentration 1000.0 nM
[3] = molecular target: Casein kinase I isoform alpha-like (Homo sapiens) (UniProt Q8N752); settings: Compound concentration 1000.0 nM
[4] = molecular target: Cyclin-dependent kinase 5 (Homo sapiens) (UniProt Q00535); settings: Compound concentration 1000.0 nM
[5] = molecular target: SRSF protein kinase 3 (Homo sapiens) (UniProt Q9UPE1); settings: Compound concentration 1000.0 nM
[6] = molecular target: Interferon-induced, double-stranded RNA-activated protein kinase (Homo sapiens) (UniProt P19525); settings: Compound concentration 1000.0 nM
[7] = molecular target: Atypical kinase COQ8A, mitochondrial (Homo sapiens) (UniProt Q8NI60); settings: Compound concentration 1000.0 nM
[8] = molecular target: Eukaryotic translation initiation factor 2-alpha kinase 1 (Homo sapiens) (UniProt Q9BQI3); settings: Compound concentration 1000.0 nM
[9] = molecular target: Ephrin type-B receptor 2 (Homo sapiens) (UniProt P29323); settings: Compound concentration 1000.0 nM
[10] = molecular target: Cyclin-dependent kinase 14 (Homo sapiens) (UniProt O94921); settings: Compound concentration 1000.0 nM
[11] = tested on: Leucine-rich repeat serine/threonine-protein kinase 2 (Homo sapiens), Q5S007 [G2019S]; settings: Compound concentration 1000.0 nM
[12] = molecular target: Non-receptor tyrosine-protein kinase TNK1 (Homo sapiens) (UniProt Q13470); settings: Compound concentration 1000.0 nM
[13] = tested on: Epidermal growth factor receptor (Homo sapiens), P00533 [G719C]; settings: Compound concentration 1000.0 nM
[14] = molecular target: Sigma intracellular receptor 2 (Homo sapiens) (UniProt Q5BJF2); settings: Compound concentration 10.0 uM
[15] = molecular target: Calcium/calmodulin-dependent protein kinase type II subunit beta (Homo sapiens) (UniProt Q13554); settings: Compound concentration 1000.0 nM
[16] = molecular target: Casein kinase I isoform gamma-3 (Homo sapiens) (UniProt Q9Y6M4); settings: Compound concentration 1000.0 nM
[17] = molecular target: Serine/threonine-protein kinase 4 (Homo sapiens) (UniProt Q13043); settings: Compound concentration 1000.0 nM
[18] = molecular target: 3-phosphoinositide-dependent protein kinase 1 (Homo sapiens) (UniProt O15530); settings: Compound concentration 1000.0 nM
[19] = molecular target: Bone morphogenetic protein receptor type-1A (Homo sapiens) (UniProt P36894); settings: Compound concentration 1000.0 nM
[20] = molecular target: Protein kinase C eta type (Homo sapiens) (UniProt P24723); settings: Compound concentration 1000.0 nM
[21] = tested on: Epidermal growth factor receptor (Homo sapiens), P00533 [T790M]; settings: Compound concentration 1000.0 nM
[22] = molecular target: Proto-oncogene tyrosine-protein kinase Src (Homo sapiens) (UniProt P12931); settings: Compound concentration 1000.0 nM
[23] = tested on: Tyrosine-protein kinase ABL1 (Homo sapiens), P00519 [T315I]; settings: Compound concentration 1000.0 nM
[24] = molecular target: BDNF/NT-3 growth factors receptor (Homo sapiens) (UniProt Q16620); settings: Compound concentration 1000.0 nM
[25] = tested on: Epidermal growth factor receptor (Homo sapiens), P00533 [UNDEFINED MUTATION]; settings: Compound concentration 1000.0 nM
[26] = molecular target: Ribosomal protein S6 kinase alpha-5 (Homo sapiens) (UniProt O75582); settings: Compound concentration 1000.0 nM
[27] = molecular target: Ribosomal protein S6 kinase alpha-2 (Homo sapiens) (UniProt Q15349); settings: Compound concentration 1000.0 nM
[28] = molecular target: Serine/threonine-protein kinase Nek3 (Homo sapiens) (UniProt P51956); settings: Compound concentration 1000.0 nM
[29] = molecular target: Protein kinase C delta type (Homo sapiens) (UniProt Q05655); settings: Compound concentration 1000.0 nM
[30] = molecular target: Phosphatidylinositol 5-phosphate 4-kinase type-2 beta (Homo sapiens) (UniProt P78356); settings: Compound concentration 1000.0 nM
[31] = molecular target: 5'-AMP-activated protein kinase catalytic subunit alpha-1 (Homo sapiens) (UniProt Q13131); settings: Compound concentration 1000.0 nM
[32] = molecular target: Cyclin-dependent kinase 16 (Homo sapiens) (UniProt Q00536); settings: Compound concentration 1000.0 nM
[33] = molecular target: Mitogen-activated protein kinase kinase kinase kinase 4 (Homo sapiens) (UniProt O95819); settings: Compound concentration 1000.0 nM
[34] = molecular target: Serine/threonine-protein kinase MRCK beta (Homo sapiens) (UniProt Q9Y5S2); settings: Compound concentration 1000.0 nM
[35] = molecular target: Ephrin type-A receptor 3 (Homo sapiens) (UniProt P29320); settings: Compound concentration 1000.0 nM
[36] = molecular target: Tyrosine-protein kinase Fes/Fps (Homo sapiens) (UniProt P07332); settings: Compound concentration 1000.0 nM
[37] = tested on: Epidermal growth factor receptor (Homo sapiens), P00533 [L858R,T790M]; settings: Compound concentration 1000.0 nM
[38] = molecular target: Serine/threonine-protein kinase WNK4 (Homo sapiens) (UniProt Q96J92); settings: Compound concentration 1000.0 nM
[39] = molecular target: Cyclin-dependent kinase 7 (Homo sapiens) (UniProt P50613); settings: Compound concentration 1000.0 nM
[40] = molecular target: Aurora kinase B (Homo sapiens) (UniProt Q96GD4); settings: Compound concentration 1000.0 nM
[41] = molecular target: Ephrin type-B receptor 3 (Homo sapiens) (UniProt P54753); settings: Compound concentration 1000.0 nM
[42] = tested on: Receptor-type tyrosine-protein kinase FLT3 (Homo sapiens), P36888 [UNDEFINED MUTATION]; settings: Compound concentration 1000.0 nM
[43] = molecular target: Fibroblast growth factor receptor 1 (Homo sapiens) (UniProt P11362); settings: Compound concentration 1000.0 nM
[44] = molecular target: cGMP-dependent protein kinase 2 (Homo sapiens) (UniProt Q13237); settings: Compound concentration 1000.0 nM
[45] = molecular target: 5-hydroxytryptamine receptor 5A (Homo sapiens) (UniProt P47898); settings: Compound concentration 10.0 uM

Sequence of Ribosomal protein S6 kinase alpha-2 (Homo sapiens) (Q15349 whole entry): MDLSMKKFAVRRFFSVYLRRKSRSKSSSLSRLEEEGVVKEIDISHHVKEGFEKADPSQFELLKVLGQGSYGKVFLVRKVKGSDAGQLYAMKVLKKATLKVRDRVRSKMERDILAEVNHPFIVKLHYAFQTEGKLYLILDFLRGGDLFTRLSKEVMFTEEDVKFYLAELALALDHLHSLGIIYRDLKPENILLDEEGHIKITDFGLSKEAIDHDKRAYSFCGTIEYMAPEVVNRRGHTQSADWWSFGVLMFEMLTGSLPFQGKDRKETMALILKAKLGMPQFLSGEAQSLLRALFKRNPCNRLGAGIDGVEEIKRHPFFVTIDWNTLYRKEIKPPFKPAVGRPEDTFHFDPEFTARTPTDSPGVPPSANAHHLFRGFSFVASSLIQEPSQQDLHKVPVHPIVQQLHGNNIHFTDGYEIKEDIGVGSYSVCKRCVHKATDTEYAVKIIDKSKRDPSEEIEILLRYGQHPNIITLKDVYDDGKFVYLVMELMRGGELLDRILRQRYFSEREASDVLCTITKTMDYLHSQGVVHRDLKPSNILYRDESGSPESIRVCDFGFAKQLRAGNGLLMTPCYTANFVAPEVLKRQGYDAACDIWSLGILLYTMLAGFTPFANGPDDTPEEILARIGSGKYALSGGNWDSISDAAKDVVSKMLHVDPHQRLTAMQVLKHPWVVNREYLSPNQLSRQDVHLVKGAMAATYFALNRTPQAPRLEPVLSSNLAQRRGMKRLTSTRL
Sequence of Ephrin type-B receptor 3 (Homo sapiens) (P54753 whole entry): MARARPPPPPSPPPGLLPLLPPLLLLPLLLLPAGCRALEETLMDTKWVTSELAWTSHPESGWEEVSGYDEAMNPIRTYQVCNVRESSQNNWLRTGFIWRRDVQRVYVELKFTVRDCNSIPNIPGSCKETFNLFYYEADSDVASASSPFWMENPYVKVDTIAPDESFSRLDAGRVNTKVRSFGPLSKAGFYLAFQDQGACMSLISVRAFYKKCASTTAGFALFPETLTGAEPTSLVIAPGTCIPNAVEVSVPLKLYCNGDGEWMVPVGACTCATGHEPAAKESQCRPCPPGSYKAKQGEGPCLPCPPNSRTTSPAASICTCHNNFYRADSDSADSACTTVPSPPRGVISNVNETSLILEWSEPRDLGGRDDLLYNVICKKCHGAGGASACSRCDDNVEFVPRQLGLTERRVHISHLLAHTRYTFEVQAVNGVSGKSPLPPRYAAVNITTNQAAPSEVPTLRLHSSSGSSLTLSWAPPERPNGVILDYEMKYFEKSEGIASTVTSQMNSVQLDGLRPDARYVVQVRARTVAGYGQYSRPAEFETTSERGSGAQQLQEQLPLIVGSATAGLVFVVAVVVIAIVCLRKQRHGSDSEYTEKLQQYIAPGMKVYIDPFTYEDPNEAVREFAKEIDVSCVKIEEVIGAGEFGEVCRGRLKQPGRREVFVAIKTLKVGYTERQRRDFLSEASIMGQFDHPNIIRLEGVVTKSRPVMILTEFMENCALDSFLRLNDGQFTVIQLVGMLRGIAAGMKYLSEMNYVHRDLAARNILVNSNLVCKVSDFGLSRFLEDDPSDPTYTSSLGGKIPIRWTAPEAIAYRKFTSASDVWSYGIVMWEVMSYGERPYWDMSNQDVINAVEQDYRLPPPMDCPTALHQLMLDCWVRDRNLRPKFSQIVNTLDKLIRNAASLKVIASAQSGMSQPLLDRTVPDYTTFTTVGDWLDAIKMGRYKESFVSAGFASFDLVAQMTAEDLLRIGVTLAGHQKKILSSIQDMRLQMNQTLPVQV
Sequence of Serine/threonine-protein kinase MRCK beta (Homo sapiens) (Q9Y5S2 whole entry): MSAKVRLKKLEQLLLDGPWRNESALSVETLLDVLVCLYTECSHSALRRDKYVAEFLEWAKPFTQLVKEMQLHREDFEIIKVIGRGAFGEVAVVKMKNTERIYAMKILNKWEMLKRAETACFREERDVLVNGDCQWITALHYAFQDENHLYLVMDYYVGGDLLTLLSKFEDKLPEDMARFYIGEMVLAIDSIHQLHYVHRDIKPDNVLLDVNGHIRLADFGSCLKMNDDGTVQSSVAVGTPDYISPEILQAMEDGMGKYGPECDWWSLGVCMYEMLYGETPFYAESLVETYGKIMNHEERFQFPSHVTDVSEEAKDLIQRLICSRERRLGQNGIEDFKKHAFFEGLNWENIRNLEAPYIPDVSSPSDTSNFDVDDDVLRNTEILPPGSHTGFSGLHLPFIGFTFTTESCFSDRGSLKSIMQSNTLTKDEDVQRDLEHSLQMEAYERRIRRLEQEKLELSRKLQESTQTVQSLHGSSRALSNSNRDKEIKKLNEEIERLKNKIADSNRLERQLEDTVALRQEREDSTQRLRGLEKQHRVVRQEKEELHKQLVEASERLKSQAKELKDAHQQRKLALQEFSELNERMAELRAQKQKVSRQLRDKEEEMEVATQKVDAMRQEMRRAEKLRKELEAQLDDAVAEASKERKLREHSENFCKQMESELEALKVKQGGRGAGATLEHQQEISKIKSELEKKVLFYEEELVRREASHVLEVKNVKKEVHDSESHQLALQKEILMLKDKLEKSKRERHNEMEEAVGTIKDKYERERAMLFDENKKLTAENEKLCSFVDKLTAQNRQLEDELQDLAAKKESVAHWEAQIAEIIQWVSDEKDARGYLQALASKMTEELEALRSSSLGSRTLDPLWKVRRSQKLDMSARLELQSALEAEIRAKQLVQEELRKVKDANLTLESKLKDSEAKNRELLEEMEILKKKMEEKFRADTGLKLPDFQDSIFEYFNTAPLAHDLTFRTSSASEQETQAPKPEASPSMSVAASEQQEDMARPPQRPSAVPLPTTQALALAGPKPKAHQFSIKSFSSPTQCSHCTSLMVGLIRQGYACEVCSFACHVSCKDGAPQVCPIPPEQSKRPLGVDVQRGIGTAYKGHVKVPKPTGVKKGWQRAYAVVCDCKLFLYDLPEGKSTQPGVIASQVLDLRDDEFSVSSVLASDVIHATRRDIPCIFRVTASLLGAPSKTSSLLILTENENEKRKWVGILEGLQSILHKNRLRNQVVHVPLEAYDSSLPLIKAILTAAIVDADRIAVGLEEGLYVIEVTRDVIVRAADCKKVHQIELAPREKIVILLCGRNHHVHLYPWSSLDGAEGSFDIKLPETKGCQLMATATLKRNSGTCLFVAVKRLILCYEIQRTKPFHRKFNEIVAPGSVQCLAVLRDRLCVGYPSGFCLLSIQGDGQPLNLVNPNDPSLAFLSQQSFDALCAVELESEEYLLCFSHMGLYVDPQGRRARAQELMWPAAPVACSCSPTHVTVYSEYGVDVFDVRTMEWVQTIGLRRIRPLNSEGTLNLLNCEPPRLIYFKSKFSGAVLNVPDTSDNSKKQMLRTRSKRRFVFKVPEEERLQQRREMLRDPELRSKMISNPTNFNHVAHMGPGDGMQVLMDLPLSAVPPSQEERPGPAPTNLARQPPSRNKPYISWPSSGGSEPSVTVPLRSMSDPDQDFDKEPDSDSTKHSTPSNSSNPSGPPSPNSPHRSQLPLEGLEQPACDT
Sequence of Homeodomain-interacting protein kinase 1 (Homo sapiens) (Q86Z02 whole entry, looked up, canonical isoform): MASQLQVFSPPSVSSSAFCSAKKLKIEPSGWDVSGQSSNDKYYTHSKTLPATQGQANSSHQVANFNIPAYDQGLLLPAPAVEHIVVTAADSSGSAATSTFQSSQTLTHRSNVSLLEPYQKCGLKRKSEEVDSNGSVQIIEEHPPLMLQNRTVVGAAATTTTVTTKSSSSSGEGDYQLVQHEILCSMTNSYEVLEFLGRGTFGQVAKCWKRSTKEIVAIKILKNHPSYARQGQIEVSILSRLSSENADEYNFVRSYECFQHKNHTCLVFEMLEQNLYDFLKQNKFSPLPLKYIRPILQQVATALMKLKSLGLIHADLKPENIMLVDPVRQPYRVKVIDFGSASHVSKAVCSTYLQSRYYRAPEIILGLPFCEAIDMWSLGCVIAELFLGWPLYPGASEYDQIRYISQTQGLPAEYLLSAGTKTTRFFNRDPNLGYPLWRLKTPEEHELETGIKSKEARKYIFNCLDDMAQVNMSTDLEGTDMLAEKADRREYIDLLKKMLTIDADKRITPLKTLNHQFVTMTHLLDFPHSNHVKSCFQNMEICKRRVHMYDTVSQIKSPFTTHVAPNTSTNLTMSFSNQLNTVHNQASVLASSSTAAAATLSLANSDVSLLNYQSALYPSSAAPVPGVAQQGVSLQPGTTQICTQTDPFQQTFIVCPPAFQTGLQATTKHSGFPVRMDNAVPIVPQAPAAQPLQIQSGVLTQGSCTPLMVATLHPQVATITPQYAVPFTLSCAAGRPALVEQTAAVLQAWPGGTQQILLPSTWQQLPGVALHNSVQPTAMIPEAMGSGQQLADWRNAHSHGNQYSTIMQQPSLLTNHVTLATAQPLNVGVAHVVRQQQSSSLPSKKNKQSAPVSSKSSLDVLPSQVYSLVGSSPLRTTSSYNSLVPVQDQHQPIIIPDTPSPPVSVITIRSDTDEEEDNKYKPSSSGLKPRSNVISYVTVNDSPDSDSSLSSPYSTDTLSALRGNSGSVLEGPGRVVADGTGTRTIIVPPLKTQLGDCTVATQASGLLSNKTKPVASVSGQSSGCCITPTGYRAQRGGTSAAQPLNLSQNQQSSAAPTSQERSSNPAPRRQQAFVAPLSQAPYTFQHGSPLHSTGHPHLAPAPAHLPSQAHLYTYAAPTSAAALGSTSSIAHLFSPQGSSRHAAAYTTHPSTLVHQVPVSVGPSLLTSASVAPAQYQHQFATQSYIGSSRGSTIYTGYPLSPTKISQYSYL
Sequence of Sigma intracellular receptor 2 (Homo sapiens) (Q5BJF2 whole entry): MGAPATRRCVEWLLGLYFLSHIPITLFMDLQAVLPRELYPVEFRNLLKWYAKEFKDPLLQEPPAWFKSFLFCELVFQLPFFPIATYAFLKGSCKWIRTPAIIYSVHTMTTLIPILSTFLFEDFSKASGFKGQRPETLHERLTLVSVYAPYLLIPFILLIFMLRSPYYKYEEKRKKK

C[C@H](c1ccc(F)cc1)N(Cc1cccc(C(=O)O)c1)C(=O)c1cnc2ccccc2c1 [PF-05105679]
inactive: residual activity [1] 65% | residual activity [2] 100% | residual activity [3] 100% | residual activity [4] 100% | residual activity [5] 92% | residual activity [6] 100% | residual activity [7] 85% | residual activity [8] 84% | residual activity [9] 96% | residual activity [10] 100% | residual activity [11] 100% | residual activity [12] 100% | residual activity [13] 90% | inhibition [14] 3.36% | residual activity [15] 100% | residual activity [16] 100% | residual activity [17] 92% | residual activity [18] 100% | residual activity [19] 100% | residual activity [20] 75% | residual activity [21] 100% | residual activity [22] 100% | residual activity [23] 85% | residual activity [24] 100% | residual activity [25] 100% | residual activity [26] 100% | residual activity [27] 100% | residual activity [28] 87% | residual activity [29] 100% | residual activity [30] 96% | residual activity [31] 100% | residual activity [32] 100% | residual activity [33] 96% | residual activity [34] 94% | residual activity [35] 85% | residual activity [36] 100% | residual activity [37] 96% | residual activity [38] 91% | residual activity [39] 100% | residual activity [40] 100% | residual activity [41] 100% | residual activity [42] 100% | residual activity [43] 100% | residual activity [44] 100% | inhibition [45] -1.89%

Reference: ChEMBL document CHEMBL4507296 (2021)
